Reference: patent publication EP1656941A1, “Compositions for the treatment of diabetic nephropathy” (Clinigene International Private Limited, priority 2004, dated 2006)

Columns and labels:
[1] = system: patients with type 1 diabetes mellitus and diabetic nephropathy; conditions: Lewis et. al. 1993; cited from earlier work
[2] = system: patients with diabetic nephropathy; assay: 24-hour urine protein (proteinuria), Pyrogallol Red / SDS reagent method; open-labeled, randomized three-arm study; type: in vivo, human; set-up: 24h Urine protein (Mean) / Difference 24h Urine protein: unit not given here
Description: The study of the effect of MMF and lisinopril for the treatment of diabetic nephropathy was designed in the following manner.
In this study, a total of 30 patients were planned of which 18 were randomized and subjected to enter into one of the studies in which the patient groups each received MMF alone, lisinopril alone, or a combination of both MMF and lisinopril.
The primary end-point for this study was the proteinuria value obtained from the patients via 24-hour urine protein which was measured using the Calorimetric method Pyrogallol Red / SDS liquid stable single reagent.
The inclusion of a patient is based on the following criteria. Type 1 and type 2 diabetic patients; male and postmenopausal (Natural & surgical) female diabetic patients; age 18-65 years; micral test positive (albumin excretion rate 20-200 µgm/min); patient must be able to swallow the oral medications to be used in the study; patient must sign an informed consent prior to the study.
The exclusion of a subject from the study is based on the following criteria: Premenopausal female patients of any age; clinical evidence of SLE; uncontrolled diabetes (Fasting Blood Glucose≥ 160 mg/dl or HbA1c ≥ 7.5%); uncontrolled hypertension (Systolic blood pressure ≥ 160 mm Hg and/or diastolic blood pressure ≥ 100 mm Hg); impaired renal function with serum creatinine ≥ 1.4 mg/dl; well-documented history of Henoch-Schonlein Purpura (with an exception to previous nonspecific abdominal pain or rash ― which is not an exclusion criteria); clinical evidence of cirrhosis or chronic active liver disease; abnormal laboratory values at the time of study entry; absolute neutrophil count (ANC) < […], or hematocrit (HCT) < 28%; AER > 200 µgm/min; BUN ≥ 25 mg/dl; known contraindication or allergy to the administration of MMF or lisinopril; history of significant gastrointestinal disorder, e.g. severe chronic diarrhea or active peptic ulcer disease; active systemic infection or history of serious infection within one month of entry; known infection with HIV, hepatitis B or hepatitis C; other major organ system disease or malignancy other than skin cancer fully excised more than 5 years prior to entry; current or prior treatment with MMF or azathioprine; current or recent (within 30 days) exposure to any investigational drug.
(§1) Evaluation of the effects of MMF or ACE inhibitors alone or in combination on the status of proteinuria in patients with diabetic nephropathy was an open-labeled, randomized study. This study consisted of three arms as shown below. • 1. treatment with MMF alone • 2. treatment with combination of MMF and lisinopril • 3. treatment with lisinopril alone In addition, there were three phases of the study as shown below.
Phase 1: Screening Phase (Duration 1 to 4 weeks): 303 patients were screened on their first visit (V1), based on the given inclusion and exclusion criteria to determine if they were eligible for the study and to assess likelihood of compliance with study protocol. Micral test for every patient was done to determine the eligibility.
(§2) Phase 2: Treatment Phase (6 months): Every patient who qualified the screening phase was assigned one of the treatment arms. During this phase, patients were monitored closely and efficacy and safety parameters are assessed every month.
• 1. MMF: The dose of MMF given during the study was 500 mg per oral twice a day throughout the study. • 2. Lisinopril: The starting dose of lisinopril given in the study was 5 mg per oral twice a day. In case of hypertensive patients, the dose could be titrated upwards based on investigator's discretion, which in turn was based on the patient's "safety end point". • 3. MMF + Lisinopril: In the patients who received both the drugs, the dose of MMF was 500 mg per oral twice a day and lisinopril was 5 mg per oral twice a day. […]

[3] = system: Diabetic rats; conditions: Utimura et. al. 2003, cited from earlier work
[4] = system: patients with diabetic nephropathy; assay: Estimated GFR by the Cockcroft - Gault formula; open-labeled, randomized three-arm study; type: in vivo, human
Procedure: A secondary end-point for this study was the GFR value obtained for each patient. This Secondary Endpoint included Estimated GFR, which was calculated using the following formulae: […]
Measurement of GFR Once all data was collected, Glomerular Filtration Rate GFR) was determined by the Cockcroft - Gault formula.
Estimated GFR(inml/min) = ([140−age(in years)∗weight(in Kg))/(Serum Creatinie level(inμmol/L)) [formula]
Estimated GFR(inml/min) = (1.23∗[140−age(in years)∗weight(in Kg))/(Serum Creatinie level(inμmol/L)) [formula]
as §1, §2
• 1. MMF: The dose of MMF given during the study was 500 mg per oral twice a day throughout the study. • 2. Lisinopril: The starting dose of lisinopril given in the study was 5 mg per oral twice a day. In case of hypertensive patients, the dose could be titrated upwards based on investigator's discretion, which in turn was based on the patient's "safety end point". • 3. MMF + Lisinopril: In the patients who received both the drugs, the dose of MMF was 500 mg per oral twice a day and lisinopril was 5 mg per oral twice a day. In the case of hypertensive patients, the dose of lisinopril could be titrated upwards based on investigator's discretion, which in turn was based on the patient's "safety end point".

[5] = system: patients with IgA nephropathy; conditions: MMF 1-1.5g per day vs 30-40 mg of Prednisone per day; followed for seventy two weeks; preliminary report; cited from earlier work
[6] = Benefited patients, 1 month after treatment at V3, MMF 500 mg per oral twice a day
[7] = Benefited patients, 3 month after treatment at V4, MMF 500 mg twice daily
[8] = Benefited patients, V3 (1 month) versus baseline V2, MMF 500 mg per oral twice a day
[9] = Benefited patients, V4 (3 month) versus baseline V2, MMF 500 mg twice daily
[10] = Not benefited patients, 1 month after treatment at V3, MMF 500 mg per oral twice a day
[11] = Not benefited patients, 3 month after treatment at V4, MMF 500 mg twice daily
[12] = Not benefited patients, V3 (1 month) versus baseline V2, MMF 500 mg per oral twice a day
[13] = Benefited patients, 1 month after treatment at V3, lisinopril 5mg twice daily
[14] = Benefited patients, 3 month after treatment at V4, lisinopril 5mg twice daily
[15] = Benefited patients, 6 month after treatment at V5, lisinopril 5mg twice daily
[16] = Benefited patients, V3 (1 month) versus baseline V2, lisinopril 5mg twice daily
[17] = Benefited patients, V4 (3 month) versus baseline V2, lisinopril 5mg twice daily
[18] = Benefited patients, V5 (6 month) versus baseline V2, lisinopril 5mg twice daily
[19] = Not benefited patients, 1 month after treatment at V3, lisinopril 5mg twice daily
[20] = Not benefited patients, 3 month after treatment at V4, lisinopril 5mg twice daily
[21] = Not benefited patients, 6 month after treatment at V5, lisinopril 5mg twice daily
[22] = Not benefited patients, V3 (1 month) versus baseline V2, lisinopril 5mg twice daily
[23] = Not benefited patients, V4 (3 month) versus baseline V2, lisinopril 5mg twice daily
[24] = Not benefited patients, V5 (6 month) versus baseline V2, lisinopril 5mg twice daily

In the case of `C[C@H](CS)C(=O)N1CCC[C@H]1C(=O)O` [Captopril], the “progression of renal disease” value [1] is listed as “prevents or delays”.

With `COc1c(C)c2c(c(O)c1C/C=C(\C)CCC(=O)OCCN1CCOCC1)C(=O)OC2` [MMF, mycophenolate mofetil] the “24h Urine protein (Mean)” value [2, 6] was 112.73, the “24h Urine protein (Mean)” value [2, 7] was 260.8 and the “Difference 24h Urine protein” value [2, 8] was -203.93. For the same compound, the “Difference 24h Urine protein” value [2, 9] was -136.6, the “24h Urine protein (Mean)” value [2, 10] was 696.3 and the “24h Urine protein (Mean)” value [2, 11] was 305.5. The “Difference 24h Urine protein” value [2, 12] was 361.7, the “reduced proteinuria in % of the patients” value ([2]; after 1 month of treatment (V3 vs V2), MMF 500 mg per oral twice a day) was 67% and the “reduced proteinuria in % of the patients” value ([2]; at V4 at the end of 3 months, 500 mg of MMF twice daily) was 67%. For the same compound, the “albuminuria, glomerular macrophage infiltration and glomerulosclerosis” value ([3]; 8 months) was “prevent”, the “effect on blood pressure, glomerular dynamics or blood glucose levels” value [3] was “no effect” and the “GFR (Mean)” value [4, 6] was 89.3 mL/min. The “GFR (Mean)” value [4, 7] was 81.85 mL/min, the “Difference GFR” value [4, 8] was 0.27 mL/min and the “Difference GFR” value [4, 9] was -1.35 mL/min. For the same compound, the “GFR (Mean)” value [4, 10] was 75.26 mL/min, the “GFR (Mean)” value [4, 11] was 49.9 mL/min and the “Difference GFR” value [4, 12] was 4.40 mL/min. For the same compound, the “Difference GFR” value ([4]; Not benefited patients, V4 (3 month) versus baseline V2, MMF 500 mg twice daily) was 49.9 mL/min and the “decreasing proteinuria, protecting renal function and also decreasing blood lipid levels” value [5] was “superior to Prednisone”.

For `NCCCC[C@H](N[C@@H](CCc1ccccc1)C(=O)O)C(=O)N1CCC[C@H]1C(=O)O` [lisinopril], the “24h Urine protein (Mean)” value [2, 13] was 236.66, the “24h Urine protein (Mean)” value [2, 14] was 161.15 and the “24h Urine protein (Mean)” value [2, 15] was 248.4. For the same compound, the “Difference 24h Urine protein” value [2, 16] was -133.6, the “Difference 24h Urine protein” value [2, 17] was -268.75 and the “Difference 24h Urine protein” value [2, 18] was -239.6. For the same compound, the “24h Urine protein (Mean)” value [2, 19] was 211.25, the “24h Urine protein (Mean)” value [2, 20] was 289.2 and the “24h Urine protein (Mean)” value [2, 21] was 626. The “Difference 24h Urine protein” value [2, 22] was 53.73, the “Difference 24h Urine protein” value [2, 23] was 101.47 and the “Difference 24h Urine protein” value [2, 24] was 254.2. The “reduced proteinuria in % of the patients” value ([2]; at the end of 1 month (V3 vs V2), 5mg of lisinopril twice daily) was 42%, the “reduced proteinuria in % of the patients” value ([2]; at the end of 3 month (V4 vs V2), 5mg of lisinopril twice daily) was 40% and the “reduced proteinuria in % of the patients” value ([2]; at the end of 6 month (V5 vs V2), 5mg of lisinopril twice daily) was 50%. The “GFR (Mean)” value [4, 13] was 79.16 mL/min, the “GFR (Mean)” value [4, 14] was 89.55 mL/min and the “GFR (Mean)” value [4, 15] was 105.9 mL/min. The “Difference GFR” value [4, 16] was -0.09 mL/min, the “Difference GFR” value [4, 17] was 7.95 mL/min and the “Difference GFR” value [4, 18] was 28.5 mL/min. The “GFR (Mean)” value [4, 19] was 63.97 mL/min, the “GFR (Mean)” value [4, 20] was 68.76 mL/min and the “GFR (Mean)” value [4, 21] was 76.4 mL/min. The “Difference GFR” value [4, 22] was 1.91 mL/min, the “Difference GFR” value [4, 23] was 0.13 mL/min and the “Difference GFR” value [4, 24] was -9.4 mL/min.
